These results are taken from ChEMBL document CHEMBL1134637, “Fluorescent tricyclic analogues of acyclovir and ganciclovir. A structure-antiviral activity study” (2001).

Common to all, as to type: functional
Assay [1] can be described thus: Minimal cytotoxic concentration (MCC) to cause a microscopically detectable change in normal cell morphology.
Assay [2] deals with Human alphaherpesvirus 1. The experiment in a line: Minimal inhibitory concentration to reduce virus-induced cytopathicity against TK-/TK+ HSV-1 of VMW 837. A general note: Cytopathic effects are the visible damage that an infection or toxin causes in cultured cells.
The subject of assay [3] is Human alphaherpesvirus 2. The experiment in a line: Minimal inhibitory concentration to reduce virus-induced cytopathicity against 196 strain of human Herpes Simplex Virus-2.
The test system of assay [4] is Human alphaherpesvirus 2. The experiment in a line: Minimal inhibitory concentration to reduce virus-induced cytopathicity against G strain of human Herpes Simplex Virus-2. As to conditions: Human alphaherpesvirus 2; read-out: MIC.
The subject of assay [5] is Vaccinia virus. The experiment in a line: Minimal inhibitory concentration to reduce virus-induced cytopathicity against VV. The note with it: Orthopoxvirus vaccinia.
For assay [6], the system named is Human alphaherpesvirus 2. The experiment in a line: Minimal inhibitory concentration to reduce virus-induced cytopathicity against Lyons strain of human Herpes Simplex Virus-2.
Assay [7] relates to Human alphaherpesvirus 1. Briefly: Minimal inhibitory concentration to reduce virus-induced cytopathicity against Thymidine kinase deficient(TK-) HSV-1 of Acyclovir.
Assay [8] relates to Human alphaherpesvirus 1. The experiment in a line: Minimal inhibitory concentration to reduce virus-induced cytopathicity against McIntyre strain of human Herpes Simplex Virus-1.
The subject of assay [9] is Human alphaherpesvirus 1. Briefly: Minimal inhibitory concentration to reduce virus-induced cytopathicity against F strain of human Herpes Simplex Virus-1 (HSV-1). As to conditions: Human alphaherpesvirus 1; read-out: MIC.
For assay [10], the system named is Human alphaherpesvirus 1. The experiment in a line: Minimal inhibitory concentration to reduce virus-induced cytopathicity against KOS strain of human Herpes Simplex Virus -1.
The subject of assay [11] is Vesicular stomatitis virus. The experiment in a line: Minimal inhibitory concentration to reduce virus-induced cytopathicity against VSV.
For assay [12], the system named is Human alphaherpesvirus 1. The experiment in a line: Minimal inhibitory concentration to reduce virus-induced cytopathicity against Thymidine kinase deficient(TK-) HSV-1 (Acyclovir).
Assay [13] concerns Human alphaherpesvirus 1. Briefly: Minimal inhibitory concentration to reduce virus-induced cytopathicity against TK-/TK+ HSV-1 (VMW 837).

Values after ≈ are worked out from the molar mass of the structure shown.

In assay [1], `OCCOCn1cnc2c(O)n3c(-c4ccccc4)c(-c4ccccc4)nc3nc21` registered an MCC greater than 16 µg/mL. Further, the MIC was greater than 16 µg/mL in [2]; 9.6 µg/mL (≈ 23.9 µM) in assay [3]; 1.92 µg/mL (≈ 4.78 µM) in [4]; greater than 16 µg/mL in [5]; 16 µg/mL (≈ 39.9 µM) in assay [6]; greater than 16 µg/mL in [7]. For the same compound, the MIC was 9.6 µg/mL (≈ 23.9 µM) in assay [8], 9.6 µg/mL (≈ 23.9 µM) in [9], 1.92 µg/mL (≈ 4.78 µM) in assay [10] and greater than 16 µg/mL in assay [11].
As for `Cc1ccc(-c2cn3c(O)c4ncn(COC(CO)CO)c4nc3n2)cc1`, in [1], the MCC came out at 80 µg/mL. Besides, the MIC in assay [2] is 0.1 µg/mL (≈ 0.271 µM); in assay [3], 0.13 µg/mL (≈ 0.352 µM); in assay [4], 0.13 µg/mL (≈ 0.352 µM); in assay [5] it was greater than 16 µg/mL; in assay [6], 0.08 µg/mL (≈ 0.217 µM); in assay [7], greater than 16 µg/mL. In addition, the MIC in assay [8] is 0.08 µg/mL (≈ 0.217 µM); in assay [9] it was 0.01 µg/mL (≈ 0.0271 µM); in assay [10], 0.02 µg/mL (≈ 0.0541 µM); in assay [11], greater than 16 µg/mL.
Compound `OCCOCn1cnc2c(O)n3cc(-c4ccc5ccccc5c4)nc3nc21` yielded an MCC in assay [1] greater than 80 µg/mL. In addition, the MIC in [2] was 12.8 µg/mL (≈ 34.1 µM); in assay [3], 16 µg/mL (≈ 42.6 µM); in [4], 6.4 µg/mL (≈ 17 µM); in [5], greater than 16 µg/mL; in assay [6], 9.6 µg/mL (≈ 25.6 µM); in assay [7] it was 16 µg/mL (≈ 42.6 µM). The MIC was 9.6 µg/mL (≈ 25.6 µM) in assay [8], 9.6 µg/mL (≈ 25.6 µM) in [9], 5.8 µg/mL (≈ 15.5 µM) in [10] and greater than 16 µg/mL in [11].
Take `COc1cccc(-c2cn3c(O)c4ncn(COCCO)c4nc3n2)c1`: in [1], the MCC is greater than 400 µg/mL. Further, the MIC in assay [2] was 9.6 µg/mL (≈ 27 µM); in assay [3] it was 3.2 µg/mL (≈ 9.01 µM); in assay [4] it was 1.92 µg/mL (≈ 5.4 µM); in [5], greater than 400 µg/mL; in [6], 3.2 µg/mL (≈ 9.01 µM); in [7] it was greater than 80 µg/mL. Further, the MIC amounted to 0.64 µg/mL (≈ 1.8 µM) in assay [8], 1.92 µg/mL (≈ 5.4 µM) in assay [9], 1.92 µg/mL (≈ 5.4 µM) in [10] and 240 µg/mL (≈ 675 µM) in [11].
In assay [1], `Cc1c(-c2ccccc2)nc2nc3c(ncn3COCCO)c(O)n12` had an MCC of 300 µg/mL. For the same compound, the MIC in assay [2] is 3.2 µg/mL (≈ 9.43 µM); in assay [3] it was 0.1 µg/mL (≈ 0.295 µM); in assay [4], 0.16 µg/mL (≈ 0.471 µM); in assay [5], greater than 200 µg/mL; in assay [6], 0.07 µg/mL (≈ 0.206 µM); in [7], 3.2 µg/mL (≈ 9.43 µM). Also, the MIC in assay [8] was 0.06 µg/mL (≈ 0.177 µM); in assay [9] it was 0.04 µg/mL (≈ 0.118 µM); in assay [10], 0.11 µg/mL (≈ 0.324 µM); in assay [11], greater than 200 µg/mL.
In [1], `Nc1nc2c(ncn2COCCO)c(=O)[nH]1` [ACYCLOVIR] came in with an MCC greater than 400 µg/mL. The MIC in [3] is 0.07 µg/mL (≈ 0.311 µM); in [4] it was 0.19 µg/mL (≈ 0.844 µM); in assay [5], greater than 80 µg/mL; in [12], 19 µg/mL (≈ 84.4 µM); in [6], 0.28 µg/mL (≈ 1.24 µM); in assay [13] it was 7.1 µg/mL (≈ 31.5 µM). Moreover, the MIC is 0.13 µg/mL (≈ 0.577 µM) in assay [8], 0.08 µg/mL (≈ 0.355 µM) in assay [9], 0.13 µg/mL (≈ 0.577 µM) in assay [10] and greater than 80 µg/mL in assay [11].
On to `O=c1[nH]c(=O)n([C@H]2C[C@H](O)[C@@H](CO)O2)cc1/C=C/Br` [BRIVUDINE], for which the MCC in assay [1] is greater than 400 µg/mL. In addition, the MIC in assay [2] is greater than 100 µg/mL; in assay [3] it was greater than 100 µg/mL; in assay [4], greater than 100 µg/mL; in assay [5], 9.2 µg/mL (≈ 27.6 µM); in [6] it was greater than 100 µg/mL; in [7], 90 µg/mL (≈ 270 µM). Further, the MIC in [8] is 0.01 µg/mL (≈ 0.03 µM); in assay [9] it was 0.02 µg/mL (≈ 0.06 µM); in assay [10], 0.02 µg/mL (≈ 0.06 µM); in assay [11], greater than 200 µg/mL.
For the compound `Nc1nc2c(ncn2COC(CO)CO)c(=O)[nH]1` [GANCICLOVIR], the MCC in assay [1] was greater than 100 µg/mL. Also, the MIC is 0.07 µg/mL (≈ 0.274 µM) in assay [2]; 0.02 µg/mL (≈ 0.0784 µM) in assay [3]; 0.01 µg/mL (≈ 0.0392 µM) in assay [4]; greater than 100 µg/mL in assay [5]; 0.04 µg/mL (≈ 0.157 µM) in [6]; 0.48 µg/mL (≈ 1.88 µM) in assay [7]. Also, the MIC in [8] is 0.006 µg/mL (≈ 0.0235 µM); in assay [9], 0.004 µg/mL (≈ 0.0157 µM); in assay [10], 0.006 µg/mL (≈ 0.0235 µM); in assay [11], greater than 100 µg/mL.
